The values that follow come from PubChem BioAssay AID1259411 (Chemical Carcinogenesis Research Information System (CCRIS), 2018).

Each structure is given as a SMILES string. Calls of active or inactive are those of the source. No rule for the calls is given here.

The data set deals with rodent carcinogenicity bioassays, tumor incidence. The data set can be described thus: CCRIS carcinogenicity studies. The essentials:
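NCI-built, expert-reviewed records of carcinogenicity and related test outcomes (mutagenicity, tumor promotion/inhibition) compiled from published and report sources, historical span 1985-2011, not updated.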

Turning to `O[C@@H]1[C@@H]2O[C@@H]2C=C[C@H]1O`, the carcinogen call by setting is: (Species: MOUSE, Strain/Sex: SWISS/FEMALE, Route: INTRAPERITONEAL, Dose: 0, 2.7, 13.7 UMOL ADMINISTERED AS 3 UNEQUAL DOSES (1/7, 2/7, AND 4/7 OF THE TOTAL DOSE) OVER A 2-WK PERIOD (STUDY DURATI, Dose: 0, 2.7, 13.7 UMOL ADMINISTERED AS 3 UNEQUAL DOSES (1/7, 2/7, AND 4/7 OF THE TOTAL DOSE) OVER A 2-WK PERIOD (STUDY DURATI, Tumor Site: Type of Lesion: LUNG: ADENOMA) “active; positive”; (Species: MOUSE, Strain/Sex: SWISS/FEMALE, Route: INTRAPERITONEAL, Dose: 0, 13.7 UMOL ADMINISTERED AS 3 UNEQUAL DOSES (1/7, 2/7, AND 4/7 OF THE TOTAL DOSE) OVER A 2-WK PERIOD (STUDY DURATION: 2, Tumor Site: Type of Lesion: LUNG: ADENOMA) “active; positive”; (Species: MOUSE, Strain/Sex: SWISS/MALE, Route: INTRAPERITONEAL, Dose: 0, 2.7, 13.7 UMOL ADMINISTERED AS 3 UNEQUAL DOSES (1/7, 2/7, AND 4/7 OF THE TOTAL DOSE) OVER A 2-WK PERIOD (STUDY DURATI, Dose: 0, 2.7, 13.7 UMOL ADMINISTERED AS 3 UNEQUAL DOSES (1/7, 2/7, AND 4/7 OF THE TOTAL DOSE) OVER A 2-WK PERIOD (STUDY DURATI, Tumor Site: Type of Lesion: LUNG: ADENOMA) “active; positive”; (Species: MOUSE, Strain/Sex: SWISS/MALE, Route: INTRAPERITONEAL, Dose: 0, 13.7 UMOL ADMINISTERED AS 3 UNEQUAL DOSES (1/7, 2/7, AND 4/7 OF THE TOTAL DOSE) OVER A 2-WK PERIOD (STUDY DURATION: 2, Tumor Site: Type of Lesion: LUNG: ADENOMA) “active; positive”.

As to `O=C(O)c1cc(Oc2ccc(C(F)(F)F)cc2Cl)ccc1[N+](=O)[O-]`, the carcinogen call is “active; positive” (Species: MOUSE, Strain/Sex: B6C3F1/FEMALE, Route: ORAL, Dose: 0, 625, 1250, 2500 PPM IN DIET FOR 18 MO (STUDY DURATION: 18 MO), Dose: 0, 625, 1250, 2500 PPM IN DIET FOR 18 MO (STUDY DURATION: 18 MO), Tumor Site: Type of Lesion: LIVER: ADENOMA, CARCINOMA, STOMACH: PAPILLOMA); “active; positive” (Species: MOUSE, Strain/Sex: B6C3F1/MALE, Route: ORAL, Dose: 0, 625, 1250, 2500 PPM IN DIET FOR 18 MO (STUDY DURATION: 18 MO), Dose: 0, 625, 1250, 2500 PPM IN DIET FOR 18 MO (STUDY DURATION: 18 MO), Tumor Site: Type of Lesion: LIVER: ADENOMA, CARCINOMA, STOMACH: PAPILLOMA); “active; positive” (Species: MOUSE, Strain/Sex: CR-CD-1/FEMALE, Route: ORAL, Dose: 0, 7.5, 4.5, 270 PPM IN DIET FOR 24 MO (STUDY DURATION: 24 MO), Dose: 0, 7.5, 4.5, 270 PPM IN DIET FOR 24 MO (STUDY DURATION: 24 MO), Tumor Site: Type of Lesion: LIVER: ADENOMA OR CARCINOMA); “active; positive” (Species: MOUSE, Strain/Sex: CR-CD-1/MALE, Route: ORAL, Dose: 0, 7.5, 4.5, 270 PPM IN DIET FOR 24 MO (STUDY DURATION: 24 MO), Dose: 0, 7.5, 4.5, 270 PPM IN DIET FOR 24 MO (STUDY DURATION: 24 MO), Tumor Site: Type of Lesion: LIVER: ADENOMA OR CARCINOMA); “inactive; negative” (Species: RAT, Strain/Sex: F344/MALE, FEMALE, Route: ORAL, Dose: 0, 25, 150, 500, 2500, 5000 PPM IN DIET FOR 2 YR (STUDY DURATION: 2 YR), Dose: 0, 25, 150, 500, 2500, 5000 PPM IN DIET FOR 2 YR (STUDY DURATION: 2 YR)).

As to `Nc1ccc(-c2ccccc2)cc1`, the carcinogen call runs as follows: (Species: DOG, Route: ORAL, Tumor Site: Type of Lesion: URINARY BLADDER) “active; positive”; (Species: HUMAN, Route: ORAL, INHALATION, DERMAL, Tumor Site: Type of Lesion: URINARY BLADDER) “active; positive”; (Species: MOUSE, Route: ORAL, Tumor Site: Type of Lesion: URINARY BLADDER, LIVER) “active; positive”; (Species: MOUSE, Route: SUBCUTANEOUS, Tumor Site: Type of Lesion: LIVER) “active; positive”; (Species: MOUSE, Strain/Sex: B6C3F1/MALE, Route: INTRAPERITONEAL, Dose: 0, 0.625 UMOL IN 35 µL DMSO ON D 1, 8, AND 15 AFTER BIRTH (STUDY DURATION: 8 MO), Tumor Site: Type of Lesion: LIVER: HEPATOCELLULAR ADENOMA) “active; positive”; (Species: MOUSE, Strain/Sex: B6C3F1/MALE, Route: INTRAPERITONEAL, Dose: 0, 0.625 UMOL IN 35 µL DMSO ON D 1, 8, AND 15 AFTER BIRTH (STUDY DURATION: 12 MO), Tumor Site: Type of Lesion: LIVER: HEPATOCELLULAR ADENOMA, HEPATOCELLULAR CARCINOMA) “active; positive”. Besides, the carcinogen call reads like this: (Species: MOUSE, Strain/Sex: B6C3F1/MALE, Route: INTRAPERITONEAL, Dose: 0, 1.25 UMOL IN 35 µL DMSO ON D 1, 8, AND 15 AFTER BIRTH (STUDY DURATION: 8 MO), Tumor Site: Type of Lesion: LIVER: HEPATOCELLULAR ADENOMA) “active; positive”; (Species: MOUSE, Strain/Sex: B6C3F1/MALE, Route: INTRAPERITONEAL, Dose: 0, 1.25 UMOL IN 35 µL DMSO ON D 1, 8, AND 15 AFTER BIRTH (STUDY DURATION: 12 MO), Tumor Site: Type of Lesion: LIVER: HEPATOCELLULAR ADENOMA, HEPATOCELLULAR CARCINOMA) “active; positive”; (Species: MOUSE, Strain/Sex: BALB/CSTCRLFC3HF/NCTR/FEMALE, Route: ORAL, Dose: 0, 7, 19, 38, 75, 150, 300 PPM IN DRINKING WATER FOR 96 WK (STUDY DURATION: 96 WK), Dose: 0, 7, 19, 38, 75, 150, 300 PPM IN DRINKING WATER FOR 96 WK (STUDY DURATION: 96 WK), Tumor Site: Type of Lesion: BLOOD VESSELS: ANGIOSARCOMA, LIVER: HEPATOCELLULAR CARCINOMA) “active; positive”; (Species: MOUSE, Strain/Sex: BALB/CSTCRLFC3HF/NCTR/MALE, Route: ORAL, Dose: 0, 7, 14, 28, 55, 110, 220 PPM IN DRINKING WATER FOR 96 WK (STUDY DURATION: 96 WK), Dose: 0, 7, 14, 28, 55, 110, 220 PPM IN DRINKING WATER FOR 96 WK (STUDY DURATION: 96 WK), Tumor Site: Type of Lesion: BLOOD VESSELS: ANGIOSARCOMA, BLADDER: CARCINOMA) “active; positive”; (Species: RABBIT, Route: ORAL, Tumor Site: Type of Lesion: URINARY BLADDER) “active; positive”; (Species: RAT, Route: SUBCUTANEOUS, Tumor Site: Type of Lesion: MAMMARY GLAND, INTESTINES) “active; positive”.
